Experimental findings from patent US7192742B2, “FO-6979 substances and process for producing the same” (Gakkou Houjin Kitasato Gakeun, priority 2001, dated 2007) are described below.

Data set [1] has as its target T1, acyl-CoA: cholesterol acyltransferase derived from mouse.
T1 construct: A membrane fraction derived from mouse liver microsome was used as an enzyme origin
Nature of the data set: Acyl-CoA: cholesterol acyltransferase activity assay, mouse liver microsome membrane fraction, [1-14C] oleoyl-CoA. The data set is classed as biochemical. To be noted: 37° C. for 10 minutes, read-out: IC50, concentration which inhibits 50% of Acyl-CoA: cholesterol acyltransferase activity. The method, then:
Inhibitory activities of FO 6979-M0 substance, -M1 substance, -M2 substance, -M3 substance and -M4 substance of the present invention (hereinafter totally designates as FO-6979 substances) on acyl-CoA: cholesterol acyltransferase derived from mouse are explained hereinbelow.
Acyl-CoA: cholesterol acyltransferase activity was assayed by the modified method of Uelmen, et al. (J. Biol. Chem. 270: 26192–26201, 1995). A membrane fraction derived from mouse liver microsome was used as an enzyme origin. A mouse liver was homogenized with buffer A [50 mM Tris-HCL (pH 7.8), 1 mM EDTA and 1 mM phenylmethanesulfonyl fluoride] using Potter homogenizer (Tokyo-RIKO Inc.).
The homogenate was centrifuged at 12,000×g, and the supernatant solution was ultracentrifuged at 100,000×g to obtain the microsome fraction which was prepared for a solution with protein concentration 5 mg/ml by adding the buffer A. Assay of acyl-CoA: cholesterol acyltransferase activity was performed by adding enzyme 200 μg protein, […] bovine serumu alubumin, [1-^14C] oleoyl-CoA (final concentration 170 μM, 0.09 μCi) and each FO-6979 substance into the buffer A to prepare total 100 μl solution and incubated at 37° C. for 10 minutes.
Subsequently, the reaction was terminated by adding 0.5 ml ethanol and added 1.5 ml hexane therein, then stirred well. Hexane layer 1 ml was dried up and was spotted on TLC plate (silica gel plate, thickness 0.5 mm, Merck Co., U.S.A.) which was developed with a solvent mixture, petroleum ether/diethyl ether/acetic acid (90:10:1, v/v). The generated [^14C] cholesteryl olate was quantitative measured using radio scanner (Ambis Co.). Results indicating concentration which inhibits 50% of Acyl-CoA: cholesterol acyltransferase activity of FO-6979 substances (-M0 substance˜-M4 substance) (IC50) are shown in the following table.

The test system of data set [2] is mouse peritoneal macrophage. Put plainly: Toxicity test on growth of mouse peritoneal macrophage. The data set is classed as cell-based. To be noted: final concentration of 50 μM.
The nature of a further data set: Solubility in solvent. The class given is physicochemical. The text has this:
The thus obtained FO-6979-M0 substance, -M1 substance, -M2 substance, -M3 substance and -M4 substance exist in the cultured microorganism cells and the culture filtrate. Isolation of FO-6979-M0 substance, -M1 substance, -M2 substance, -M3 substance and -M4 substance from the cultured mass can be performed by extracting the whole cultured mass with water miscible organic solvent such as aceton, distilling off the organic solvent from the extract in vacuo, and extracting the residue with water immiscible organic solvent such as ethyl acetate. In addition to the above extraction procedure, conventional methods used for isolation of fat-soluble substances such as adsorption chromatography, gel filtration chromatography, thin-layer chromatography, counter current chromatography and high performance liquid chromatography can be used optionally in combination or repeatedly to isolate and purify FO-6979-M0 substance, -M1 substance, -M2 substance, -M3 substance and -M4 substance. Physicochemical properties of FO-6979 substances of the present invention are explained hereinbelow.

Another data set relates to mice. Nature of the data set: Toxicity test, intraperitoneal administration in mice. The class given is in vivo. To be noted: administered intraperitoneally, 100 mg/kg. Here is the method:
Next, toxicity test of FO-6979 substances of the present invention was explained hereinbelow.
No toxicity was noted when FO-6979-M0 substance, -M1 substance, -M2 substance, -M3 substance and -M4 substance was administered intraperitoneally in mice with 100 mg/kg.

Data set [3] has as its system cholesteryl ester formation in mouse peritoneal macrophage. Nature of the data set: Cholesteryl ester formation in mouse peritoneal macrophage ([14C] oleic acid incorporation). The class given is cell-based. To be noted: for IC50: 14 hours incubation, read-out: IC50, generation of [14C] cholesteryl olate. The method, then: Inhibitory action of FO-6979 substances of the present invention on cholesteryl ester formation in mouse peritoneal macrophage is explained.
Cholesteryl ester formation and lipid droplets formation in mouse peritoneal macrophage were performed according to a method of Namatame et al.(J. Biochem. 125: 319–327, 1999). Macrophage isolated from mouse peritoneal fluid was suspended at 2.0×10^6 cells/ml in Dulbecco's modified Eagle's medium containing 6.8% lipoprotein deficient serum (6.8% LPDS-DMEM) and aliquots (0.25 ml) were dispensed into a 48-well microplate (Corning Co.).
The plate was incubated in a humidified 5% CO2 atmosphere incubator at 37° C. for 2 hours, after which each plate was washed with Hank's solution to remove the unattached cells. The plate was incubated in 6.8% LPDS-DMEM for 1 hour, and each one of FO-6979 substances (2.5 μl 1 methanol solution), liposome [consisting of phosphatidylcholine/phosphatidylserine/dicetylphosphate/cholesterol=10:10:2:15 (nmol) in 10 μl of 0.3 M glucose] and [1-^14C] oleic acid (5 μl, 0.05 μCi, 1 nmol) were added therein, then incubated further 14 hours.
After the incubation, supernatant was removed and the intracellular neutral lipids were extracted twice with adding hexane 0.6 ml and isopropanol 0.4 ml. The mixture was concentrated, spotted on TLC plate (silica gel plate, Merck Co., thickness 0.5 mm) and developed and with a mixed solvent of hexane/diethyl ether/acetia acid(70:30:1, v/v). The separated [^14C] cholesteryl olate and [^14C] triacylglycerol were quantitatively assayed using radio scanner (Ambis Co.).

Data set [4] relates to lipid droplets formation in mouse peritoneal macrophage. Put plainly: Lipid droplets formation in mouse peritoneal macrophage (oil red O / hematoxylin staining). The class given is cell-based. To be noted: 20 μM, 14 hours. Here is the method: Inhibitory action of FO-6979 substances of the present invention on lipid droplets formation in mouse peritoneal macrophage is explained.
Lipid droplets formation in mouse peritoneal macrophage was performed according to the method of Namatame et al. (J. Biochem. 125:319–327, 1999). Macrophage isolated from mouse peritoneal fluid was suspended at 2.0×10^6 cells/ml in Dulbecco's modified Eagle's medium containing 6.8% lipoprotein deficient serum (6.8% LPDS-DMEM) and aliquots (0.25 ml) were dispensed into a slide chamber (Nunc Co.).
The chamber was incubated in a humidified 5% CO2 atmosphere incubator at 37° C. for 2 hours, after which the chamber was washed with Hank's solution to remove the unattached cells. The chamber was incubated in 6.8% LPDS-DMEM for 1 hour, and FO-6979-M3 substance (2.5 μl methanol solution) and liposome [consisting of phosphatidylcholine/phosphatidylserine/dicetylphosphate/cholesterol=10:10:2:15 (nmol) in 10 μl of 0.3 M glucose] were added therein, then incubated further 14 hours.
The lipid droplets and nuclei were double stained with oilred O and hematoxylin, and observed by optical microscope (Olympus OpticalCo., Japan).

Where [5] appears, read: Mus musculus, Peritoneal macrophage, 14 h.

Read-outs that look alike come from different tables or passages of the source.

Consider `CCCCC(C)C1CC(=O)N[C@@H](C(C)C)C(=O)N[C@@H](C)C(=O)N[C@H]([C@@H](C)CC)C(=O)O1` (stereo partly drawn) [FO-6979-M1 substance], for which the IC50 in data set [1] is greater than 50 µM. In addition, in data set [2], the “toxicity for growth of mouse peritoneal macrophage” value (“toxicity for growth” for short) is recorded as “No toxicity”. Further, in “Solubility in solvent”, the “Solubility in solvent: methanol, benzene, chloroform and ethyl acetate” value (from here on “Solubility in solvent: methanol, benzene”) is listed as “soluble”; the “Solubility in solvent: water and hexane” value is reported as “slightly soluble”. Further, the toxicity in mice result with mice is “No toxicity”. Moreover, in data set [3] (setting [5]), the IC50 is greater than 45 µM. In data set [3] (at 45 μM, read-out: inhibition of [14C] cholesteryl olate generation), the inhibition at 45 µM is 20%.
With `CCCCC(C)C1CC(=O)N[C@@H](C(C)C)C(=O)N[C@@H](C)C(=O)N[C@H](C(C)C)C(=O)O1` (stereo partly drawn) [FO-6979-M0 substance], the values for the IC50 in data set [1] and in data set [3] (setting [5]) were greater than 50 µM and greater than 25 µM, respectively. For the same compound, the “toxicity for growth” value in data set [2] is listed as “No toxicity”. Besides, the “Solubility in solvent: methanol, benzene” value in the data set “Solubility in solvent” is on record as “soluble”. For the same compound, the “Solubility in solvent: water and hexane” value in the data set “Solubility in solvent” was “slight soluble”. Besides, the toxicity in mice entry in the data set on mice is reported as “No toxicity”.
For `CCCCCCC(C)C1CC(=O)N[C@@H](C(C)C)C(=O)N[C@@H](C)C(=O)N[C@H]([C@@H](C)CC)C(=O)O1` (stereo partly drawn) [FO-6979-M4 substance], the “toxicity for growth” value in data set [2] is listed as “No toxicity”. Further, in the data set “Solubility in solvent”, the “Solubility in solvent: methanol, benzene” value is “soluble”; the “Solubility in solvent: water and hexane” value was “slightly soluble”. Besides, in the data set with mice, the toxicity in mice result is on record as “No toxicity”.
In the case of `CCCCC(C)C1CC(=O)N[C@@H](C(C)C)C(=O)N[C@@H](C)C(=O)N[C@H](CC(C)C)C(=O)O1` (stereo partly drawn) [FO-6979-M2 substance], the “toxicity for growth” value in data set [2] is reported as “No toxicity”. In the data set “Solubility in solvent”, the “Solubility in solvent: methanol, benzene” value is reported as “Soluble”; the “Solubility in solvent: water and hexane” value is reported as “slightly soluble”. The toxicity in mice result in the data set on mice was “No toxicity”. The IC50 in data set [3] was greater than 25 µM.
As for `CCCCC(C)C1CC(=O)N[C@@H](Cc2ccccc2)C(=O)N[C@@H](C)C(=O)N[C@H](C(C)C)C(=O)O1` (stereo partly drawn) [FO-6979-M3 substance], the IC50 in data set [1] is 40 µM; in data set [3] it was greater than 25 µM; in data set [3] (setting [5]), 21 µM. Besides, the “lipid droplets accumulated in cytoplasm, decreased to % as compared with no drug addition (control)” value in data set [4] was “about 50%”. Besides, the “toxicity for growth” value in data set [2] is reported as “No toxicity”. For the same compound, the “Solubility in solvent: methanol, benzene” value in “Solubility in solvent” is reported as “soluble”. Besides, in the data set “Solubility in solvent”, the “Solubility in solvent: water and hexane” value was “slightly soluble”. In addition, the toxicity in mice entry in the data set on mice is “No toxicity”.
